Laboratory results reported in patent US5726316A, “Pharmaceutical compositions for prevention and treatment of central nervous system disorders” (priority 1997, dated 1998).
pKi: −log10 of the molar value.

How the values were obtained:
[1] = target: T1, ganglionic-type neuronal nicotinic receptors (pheochromocytoma clonal line PC12) (Rattus norvegicus, UniProt P04757+P12392); format: cell-based; settings: pc12 cells
T1 construct: Intact cells on dishes were used for functional studies; endogenous in cells; host or cells: PC12 (rat pheochromocytoma)
T1 sequence (P04757 26-499): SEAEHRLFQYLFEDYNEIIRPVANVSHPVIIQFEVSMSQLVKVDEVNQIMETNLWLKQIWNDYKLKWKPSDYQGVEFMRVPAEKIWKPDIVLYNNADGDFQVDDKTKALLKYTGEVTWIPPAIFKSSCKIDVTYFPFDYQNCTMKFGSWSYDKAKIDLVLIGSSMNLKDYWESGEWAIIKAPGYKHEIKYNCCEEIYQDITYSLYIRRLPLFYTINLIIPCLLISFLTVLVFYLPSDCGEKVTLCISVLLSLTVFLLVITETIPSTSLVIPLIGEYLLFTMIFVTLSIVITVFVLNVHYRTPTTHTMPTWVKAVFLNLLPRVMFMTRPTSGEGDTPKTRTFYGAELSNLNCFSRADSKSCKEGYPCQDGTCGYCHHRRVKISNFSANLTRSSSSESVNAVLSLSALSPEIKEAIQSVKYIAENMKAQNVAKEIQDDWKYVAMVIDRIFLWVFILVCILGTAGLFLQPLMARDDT
T1 sequence (P12392 21-495): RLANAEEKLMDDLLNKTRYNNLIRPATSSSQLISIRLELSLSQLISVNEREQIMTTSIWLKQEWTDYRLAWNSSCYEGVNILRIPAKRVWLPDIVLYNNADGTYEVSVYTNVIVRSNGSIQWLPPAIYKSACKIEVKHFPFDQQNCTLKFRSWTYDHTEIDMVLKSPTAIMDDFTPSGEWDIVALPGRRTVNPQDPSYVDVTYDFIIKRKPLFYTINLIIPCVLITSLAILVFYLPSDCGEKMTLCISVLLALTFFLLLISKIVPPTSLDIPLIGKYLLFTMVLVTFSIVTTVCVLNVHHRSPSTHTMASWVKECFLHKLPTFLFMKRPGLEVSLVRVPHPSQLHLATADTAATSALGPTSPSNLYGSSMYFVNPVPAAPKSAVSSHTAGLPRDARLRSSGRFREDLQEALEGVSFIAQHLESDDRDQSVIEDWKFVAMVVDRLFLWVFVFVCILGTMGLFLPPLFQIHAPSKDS
Experimental: (§1) Intact cells on dishes were used for functional studies.
(§2) Specific ion efflux was determined as the difference in isotope efflux between total and non-specific efflux samples. Dose-response curves were plotted and the concentration resulting in half maximal activation of specific ion flux through nicotinic receptors determined for human muscle and rat ganglionic preparations (EC50).

[2] = target: nicotinic receptors (L-[3H]nicotine binding, rat brain membrane preparations); design: species or system rat (Sprague-Dawley); settings: calculated from IC50 (Cheng et al.)
Experimental: Rats (Sprague-Dawley) were maintained on a 12 hour light/dark cycle and were allowed free access to water and food supplied by Wayne Lab Blox, Madison, Wis. Animals used in the present studies weighted 200 to 250 g. Brain membrane preparations were obtained from brain tissue of either males or females.
Rats were killed by decapitation following anesthesia with 70% CO2. Brains were removed and placed on an ice-cold platform. […] The resulting homogenate was centrifuged at 18,000×g for 20 min. and the resulting pellet was resuspended in 20 volumes of water. After 60 min. incubation at 4° C., a new pellet was collected by centrifugation at 18,000×g for 20 min. After resuspension in 10 volumes of buffer, a new final pellet was again collected by centrifugation at 18,000×g for 20 min. Prior to each centrifugation step, the suspension was incubated at 37° C. for 5 min. to promote hydrolysis of endogenous acetylcholine. The final pellet was overlayed with buffer and stoerd at -70° C. On the day of the assay, that pellet was thawed, resuspended in buffer and centrifuged at 18,000×g for 20 min. The pellet obtained was resuspended in buffer to a final concentration of approximately 5 mg protein/ml.
The binding of L-[^3 H]nicotine was measured using a 2 hr. incubation at 4° C. […] Nonspecific binding was determined by inclusion of 10 uM nonradioactive nicotine in the incubations.

[3] = tested on: synaptosomes from the striatal area of rat brain; assay: Dopamine release from striatal synaptosomes; format: biochemical, rat (Sprague-Dawley); settings: relative to (S)-(-)-nicotine
Experimental: Dopamine release was measured by preparing synaptosomes from the striatal area of rat brain obtained from Sprague-Dawley rats generally according to the procedures set forth by Nagy et al., J. Neurochem., Vol. 43, pp. 1114-1123 (1984). Striata from 4 rats were homogenized in 2 ml of 0.32M sucrose buffered with 5 mM HEPES (pH 7.5), using a glass-Teflon tissue grinder. The homogenate was diluted to 5 ml with additional homogenization solution and centrifuged at 1,000×g for 10 min. This procedure was repeated on the new pellet and the resulting supernatant was centrifuged at 12,000×g for 20 min. A 3 layer discontinuous Percoll gradient consisting of 16 percent, 10 percent and 7.5 percent Percoll in HEPES-buffered sucrose was made with the final pellet dispersed in the top layer. […] Using this method, 30 to 90 percent of the dopamine was taken up into the synaptosomes, as determined by scintillation counting following filtration through glass fiber filters soaked with 0.5 percent polyethyleneimine. […] After the addition of 0.2 ml of a solution containing various concentrations of ligand, the perfusate was collected into scintillation vials at 1 min. intervals and the dopamine release was quantified by scintillation counting. Peaks of radioactivity released above background were summed and the average basal release during that time was substracted from the total.

[4] = target: T2, muscle-like nicotinic receptors (human clonal line TE671/RD) (Homo sapiens, UniProt P02708+P07510+Q07001); format: cell-based; settings: te671/rd cells
T2 construct: Intact cells on dishes were used for functional studies; endogenous in cells; host or cells: TE671/RD (human embryonal rhabdomyosarcoma)
T2 sequence (P02708 21-457): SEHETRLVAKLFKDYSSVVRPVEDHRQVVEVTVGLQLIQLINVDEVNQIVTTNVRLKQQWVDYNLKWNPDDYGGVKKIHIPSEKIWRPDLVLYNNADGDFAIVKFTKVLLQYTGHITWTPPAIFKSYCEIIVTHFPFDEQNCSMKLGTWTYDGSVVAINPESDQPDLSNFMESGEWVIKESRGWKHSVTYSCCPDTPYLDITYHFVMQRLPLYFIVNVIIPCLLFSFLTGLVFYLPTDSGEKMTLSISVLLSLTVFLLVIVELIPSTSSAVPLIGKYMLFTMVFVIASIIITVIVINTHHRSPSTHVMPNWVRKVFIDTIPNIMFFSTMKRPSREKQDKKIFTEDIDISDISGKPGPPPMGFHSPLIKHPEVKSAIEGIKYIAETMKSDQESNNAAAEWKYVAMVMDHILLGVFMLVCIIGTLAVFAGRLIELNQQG
T2 sequence (Q07001 22-517): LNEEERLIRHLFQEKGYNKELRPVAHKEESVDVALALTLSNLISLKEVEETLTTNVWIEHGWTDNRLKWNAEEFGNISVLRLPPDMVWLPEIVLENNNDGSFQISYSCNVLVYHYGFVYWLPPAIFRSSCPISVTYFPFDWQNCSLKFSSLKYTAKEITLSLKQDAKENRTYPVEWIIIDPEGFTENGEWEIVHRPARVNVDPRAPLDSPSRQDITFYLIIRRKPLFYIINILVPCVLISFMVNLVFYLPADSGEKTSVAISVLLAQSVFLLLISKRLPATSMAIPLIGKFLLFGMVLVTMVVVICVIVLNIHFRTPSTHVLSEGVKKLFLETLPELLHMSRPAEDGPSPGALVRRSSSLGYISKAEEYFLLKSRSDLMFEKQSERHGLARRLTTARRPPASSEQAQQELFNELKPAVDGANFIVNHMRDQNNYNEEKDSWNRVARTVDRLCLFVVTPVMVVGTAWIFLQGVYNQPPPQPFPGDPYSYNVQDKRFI
T2 sequence (P07510 23-517): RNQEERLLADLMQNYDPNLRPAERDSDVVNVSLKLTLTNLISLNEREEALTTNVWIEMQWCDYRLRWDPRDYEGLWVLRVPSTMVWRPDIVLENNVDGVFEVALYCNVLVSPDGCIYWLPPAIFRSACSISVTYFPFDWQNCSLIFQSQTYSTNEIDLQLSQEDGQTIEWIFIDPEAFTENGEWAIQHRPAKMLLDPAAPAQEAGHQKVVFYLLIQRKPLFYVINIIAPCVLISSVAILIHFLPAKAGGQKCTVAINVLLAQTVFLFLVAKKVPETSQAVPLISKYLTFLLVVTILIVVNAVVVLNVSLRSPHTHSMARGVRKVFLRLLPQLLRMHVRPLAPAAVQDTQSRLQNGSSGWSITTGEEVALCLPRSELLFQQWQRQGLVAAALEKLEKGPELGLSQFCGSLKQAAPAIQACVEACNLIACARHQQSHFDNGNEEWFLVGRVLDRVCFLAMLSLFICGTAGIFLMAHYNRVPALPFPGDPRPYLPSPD
Experimental: Dose-response curves were plotted and the concentration resulting in half maximal activation of specific ion flux through nicotinic receptors determined for human muscle and rat ganglionic preparations (EC50).
as §1, §2

Structure (SMILES): CNCCCCc1cccnc1 [Sample No. 7, N-methyl-(3-pyridinyl)-buane-1-amine]
- Ganglion Effect [1]: 31 % nicotine
- pKi [2]: 6.04
- Dopamine Release Emax [3]: 72 % nicotine
- Muscle Effect [4]: 0 % nicotine
